Source: PMC2760071 (Bioorganic & medicinal chemistry letters, 2009)

Assays:
murine COX-2 [1] = biological target: T1, murine COX-2 (Mus musculus, UniProt Q05769); experiment: Competitive COX inhibition assay, reduced arachidonate; format: biochemical; settings: COX-2, 5 μM arachidonate, at the concentration ranges tested
T1 sequence (Q05769 18-604): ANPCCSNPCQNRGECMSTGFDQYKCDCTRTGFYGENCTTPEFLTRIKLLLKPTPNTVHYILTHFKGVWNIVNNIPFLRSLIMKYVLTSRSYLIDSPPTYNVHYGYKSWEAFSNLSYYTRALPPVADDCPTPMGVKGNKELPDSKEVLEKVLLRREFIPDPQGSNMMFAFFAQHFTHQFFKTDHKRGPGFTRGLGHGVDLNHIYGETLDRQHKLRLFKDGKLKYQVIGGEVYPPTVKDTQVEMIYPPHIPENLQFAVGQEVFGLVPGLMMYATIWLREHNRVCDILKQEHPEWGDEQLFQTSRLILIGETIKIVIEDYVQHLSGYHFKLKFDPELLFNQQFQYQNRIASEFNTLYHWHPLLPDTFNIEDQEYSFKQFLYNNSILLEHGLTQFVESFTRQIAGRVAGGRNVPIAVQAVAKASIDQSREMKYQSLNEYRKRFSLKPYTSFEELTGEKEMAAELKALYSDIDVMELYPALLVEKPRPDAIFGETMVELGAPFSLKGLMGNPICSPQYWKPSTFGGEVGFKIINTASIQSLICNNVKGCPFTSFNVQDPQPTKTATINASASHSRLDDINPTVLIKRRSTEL

murine COX-2 [2] = biological target: T1, murine COX-2; settings: COX-2, 50 μM arachidonic acid (saturating)
[3] = Photoisomerization / light stability of E and Z isomers
ovine COX-1 [4] = biological target: T2, ovine COX-1 (Ovis aries, UniProt P05979); settings: COX-1, 50 μM arachidonic acid (saturating)
T2 sequence (P05979 25-600): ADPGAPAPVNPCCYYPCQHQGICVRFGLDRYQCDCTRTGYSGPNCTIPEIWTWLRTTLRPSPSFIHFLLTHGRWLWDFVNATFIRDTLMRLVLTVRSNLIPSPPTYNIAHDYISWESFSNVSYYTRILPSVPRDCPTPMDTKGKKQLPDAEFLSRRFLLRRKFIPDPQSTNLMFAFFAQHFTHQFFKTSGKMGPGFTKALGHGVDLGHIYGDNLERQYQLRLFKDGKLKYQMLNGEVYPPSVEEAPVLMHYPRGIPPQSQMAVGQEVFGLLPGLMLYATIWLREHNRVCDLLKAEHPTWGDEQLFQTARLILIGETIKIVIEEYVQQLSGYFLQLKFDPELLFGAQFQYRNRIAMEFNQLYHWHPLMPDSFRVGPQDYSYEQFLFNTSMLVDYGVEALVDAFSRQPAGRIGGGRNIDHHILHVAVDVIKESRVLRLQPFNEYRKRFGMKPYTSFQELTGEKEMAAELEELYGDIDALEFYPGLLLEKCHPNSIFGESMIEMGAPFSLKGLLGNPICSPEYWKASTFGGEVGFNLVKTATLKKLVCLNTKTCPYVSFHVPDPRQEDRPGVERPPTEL

ovine COX-1 [5] = biological target: T2, ovine COX-1; settings: COX-1, 5 μM vs 50 μM arachidonate, data not shown
oCOX-1 = settings: wild-type oCOX-1; cited from earlier work

For CSc1ccc(/C=C2\C=C(CC(=O)O)c3cc(F)ccc32)cc1, the “competitive inhibition (in words)” value (murine COX-2 [1]) was “no inhibition”, the “time-dependent inhibition (in words)” value (murine COX-2 [2]) was “no time-dependent inhibition” and the “percentage conversion to the Z-isomer” value ([3]; 370 nm, 24 hours, high-pressure mercury lamp) was 1-2%. The “time-dependent inhibition (in words)” value (ovine COX-1 [4]) was “no time-dependent inhibition”.

With CSc1ccc(/C=C2/C(C)=C(CC(=O)O)c3cc(F)ccc32)cc1 [sulindac sulfide, reference compound] the “effect of reduced substrate concentration on ability to inhibit” value (ovine COX-1 [5]) was “not significantly affected”, the “photoisomerization (interconversion)” value ([3]; natural light and ultraviolet conditions) was “no interconversion was observed” and the “maximal extent (plateau) of inhibition” value (ovine COX-1 [4]) was “around 75%”.

For CSc1ccc(/C=C2/C=C(CC(=O)O)c3cc(F)ccc32)cc1 [(Z)-2′-des-methyl sulindac sulfide], the “behaviour on exposure to natural light” value ([3]; natural light, during HPLC purification) was “photoisomerized to the E-isomer”.

For COc1ccc2c(c1)c(CC(=O)O)c(C)n2C(=O)c1ccc(Cl)cc1 [Indomethacin, indomethacin], the IC50 (oCOX-1) is listed as […].
